Reference: patent EP4159743A1, “METHODS FOR PREPARING PYRIDAZINE COMPOUNDS” (ETH Zurich, priority 2021, dated 2023)

Experiment: Kinetics measurements, control sample: decrease in absorption of the tetrazine alone over time
Assay type: physicochemical
Conditions: absorption at 525 nm monitored over time, trypsin buffer
Experimental: For kinetic measurements, 196 µL trypsin buffer was added with 2 µL of a 10 mM stock solution of compound 1 in DMSO (final concentration 100 µM) and 2 µL of a 10 mM stock solution of 3,6-di-2-pyridyl-1,2,4,5-tetrazine in DMSO (final concentration 100 µM) in a quartz cuvette. The sample was mixed well and absorption at 525 nm was monitored over time, measuring every minute. Measurements were done in triplicates. […] This was subtracted from the kinetic measurements. The obtained absorbance values were converted to concentrations through a standard curve and were plotted as the reciprocal concentration of the tetrazine reagent versus time to yield a second-order rate constant. Data analysis and statistical analysis were done in Microsoft Excel (2016) and Prism 7 (GraphPad).

rate constant (decrease in absorption over time, fitted to a first-order reaction equation): 2.96e-05 s⁻¹
SMILES: c1ccc(-c2nnc(-c3ccccn3)nn2)nc1 [3,6-di-2-pyridyl-1,2,4,5-tetrazine]
